Type in all cases: cell-based
The subject of assay [1] is E. coli with P family pili, ATCC 53505. The assay is described as follows: E. coli adhesion to A431 epithelial cells. To be noted: A431 cells pre-incubated 30 minutes, OD 540 nm of 2 hr culture of bound bacteria. The procedure:
Cultured A431 cells were used as a vaginal epithelial model. A431 cells were obtained from American Cell Type Culture Collection, catalog # CRL-1555. A monolayer of A431 cells was grown on a 24-well tissue culture plate until confluent.
E. coli with P family pili, ATCC 53505, were cultured in trypticase soy broth (TSB) overnight. Phosphate buffered saline (PBS, control) or hyaluronic acid (Sigma catalog # H 1876) solutions at a concentration of 1 mg/ml or 5 mg/ml in PBS was added to the A431 cell layers, using a volume of 1.2 ml/well. After incubation for 30 minutes at 37° C., 0.7 ml of solution was removed from the wells and 0.5 ml of the bacteria suspension was added. […] After 60 minutes, the supernatant in each well was removed and the wells were rinsed thoroughly with PBS to remove all non-bound bacteria. Trypticase soy broth was then added to wells, and the whole system was incubated at 37° C. with shaking for 2 hours. Bacterial concentration was measured by the detection of optical density of bacterial suspension at 540 nm.
(§1) All the data are expressed as mean±SEM and were analyzed by one-way Analysis of Variance (ANOVA) followed by a Tukey-Kramer Multiple Comparisons Test. Differences were considered significant at the level of p<0.05.

For another assay, the system named is E. coli, ATCC 53505. The assay is described as follows: Effect on E. coli growth (optical density at 540 nm). To be noted: OD 540 nm at 1, 2 and 3 hours. The procedure:
To test whether hyaluronic acid could influence cellular growth, E. coli, ATCC 53505 cells were cultured overnight in trypticase soy broth. The culture was then diluted to an optical density of 0.1 and hyaluronic acid (1 mg/ml or 5 mg/ml) in PBS was incubated with the E. coli suspension. A control comprising a suspension E. coli treated with PBS was also prepared. The test and control cells were incubated at 37° C. with shaking and the optical density of the bacterial suspensions at 540 nm was measured at 1, 2 and 3 hours after addition of the hyaluronic acid or PBS.
as §1

The test system of assay [2] is Candida albicans, ATCC 10231. Description: Adherence of Candida albicans to A431 cells. To be noted: for number of Candida albicans adhering to A431 cells: A431 cells pre-incubated 30 minutes, colony count. The procedure: A culture of Candida albicans, ATCC 10231, was started as a frozen bead in peptone/glucose culture medium and incubated at 37° C. with shaking for three days before the experiment. A monolayer of A431 cells, ATCC CRL-1555, was grown on a 24-well tissue culture plate until confluent. Hyaluronic acid at concentration of 1 mg/ml PBS or 5 mg/ml PBS was added to the wells (1.2 ml/well), and the plates were incubated for 30 minutes at 35° C. A control plate of confluent A431 cells was also prepared that received 1.2 ml/well PBS and no hyaluronic acid. After the 30 min incubation, 0.7 ml of solution was removed from the wells and 0.5 ml of yeast suspension (1×10^6 cfu/ml) was added. After 2 hours of incubation, the supernatant was removed from the wells and the wells were rinsed thoroughly with PBS to remove all non-bound yeast. Then, 0.2 ml of 0.25% trypsin/EDTA was added to each well and the plates were incubated at 35° C. for 15 min. Trypsinization was stopped by adding 1 ml of 10% fetal bovine serum in culture medium. The trypsinized cell/yeast suspension was centrifuged and re-suspended in 1 ml of the medium. Serial dilutions of the Candida albicans/A431 cell suspension were plated on Sabouraud's dextrose agar plates and incubated overnight at 35° C. The number of colonies on each plate was counted and the number of yeast attached to the cells in each well was calculated.
All the data are expressed as mean ±SEM and were analyzed by one-way Analysis of Variance (ANOVA) followed by a Tukey-Kramer Multiple Comparisons Test. Differences were considered significant at the level of p<0.05.

As for hyaluronic acid, the “number of E. coli attached to A431 cells” value is given as “lesser effect” in assay [1] (1 mg/ml in PBS) and “significantly inhibited” in assay [1] (5 mg/ml in PBS). Moreover, the “effect on bacterial growth” value with E. coli, ATCC 53505 (1 mg/ml in PBS) is on record as “neither of the hyaluronic acid solutions had any effect on bacterial growth”; in the assay with E. coli, ATCC 53505 (5 mg/ml in PBS) it was “neither of the hyaluronic acid solutions had any effect on bacterial growth”. Besides, the “number of Candida albicans adhering to A431 cells” value in assay [2] (1 mg/ml in PBS) is on record as “the effect was not so significant”; in assay [2] (5 mg/ml in PBS) it was “significantly inhibited”. Also, in assay [2] (versus PBS-treated A431 cells, concentration not given), the “number of yeast colonies from treated A431 cells (FIG. 4)” value is “fewer yeast colonies”.

For the origin of these results see US7238677B2, “Prevention of urogenital infections” (Kimberly-Clark Worldwide, Inc., priority 2003, dated 2007).
